Experiment [1] concerns phosphorylated AKT Ser473 (pAKT S473), mTORC2 activity, PC3 cells. Kind of experiment: mTOR target engagement assay, immunofluorescent cell-based, pAKT S473 readout (mTORC2 activity). The settings on record: Homo sapiens. The method, boiled down: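 After blocking, cells were stained overnight at 4 °C with anti-pAKT S473 antibody, then a fluorescent secondary; inhibition was read as reduced fluorescence intensity.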

Experiment [2] relates to phosphorylated 4E-BP1 Thr37/46 (p4E-BP1 Thr37/46), mTORC1 activity, PC3 cells. Kind of experiment: mTOR target engagement assay, immunofluorescent cell-based, p4E-BP1 Thr37/46 readout (mTORC1 activity). The settings on record: Homo sapiens, read-out: p4E-BP1 Thr37/46 IC50. The gist of the method: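 Read-out is fluorescence intensity of immunostained p4E-BP1 Thr37/46 in fixed PC3 cells, fitted to a logistic curve for IC50 with DMSO-only wells as top. Cells had been exposed to serial compound dilutions for ninety minutes at 37° C in 5% FBS medium with 0.25% DMSO.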

Where [3] appears, read: PC-3, PC3 cells, compound treatment ninety minutes at 37° C.

From patent US9227971B2, “Pyrazolo[1,5-a]pyrimidine compounds as mTOR inhibitors” (Merck Sharp & Dohme Corp., priority 2010, dated 2016) come the findings set out here.

Read-outs that look alike come from different tables or passages of the source.

As for `COc1ccc(-c2ccc(-c3cnn4c(N)c(Br)c([C@@H]5C[C@H]6CC[C@@H](C5)N6C(=O)CO)nc34)cn2)cc1CO` [Compound 2.2, 1-((1R,3s,5S)-3-(7-amino-6-bromo-3-(6-(3-(hydroxymethyl)-4-methoxyphenyl)pyridin-3-yl)pyrazolo[1,5-a]pyrimidin-5-yl)-8-azabicyclo[3.2.1]octan-8-yl)-2-hydroxyethanone], the figures for the IC50 in experiment [1] (setting [3]) and in experiment [2] (setting [3]) were 1 to 100 nM and 100 to 1000 nM, respectively.

As for `Cn1cc(-c2cnn3c(N)c(S(C)(=O)=O)c([C@@H]4C[C@H]5CC[C@@H](C4)N5C(=O)CO)nc23)cn1` [Compound 3.112, 1-((1R,3s,5S)-3-(7-amino-3-(1-methyl-1H-pyrazol-4-yl)-6-(methylsulfonyl)pyrazolo[1,5-a]pyrimidin-5-yl)-8-azabicyclo[3.2.1]octan-8-yl)-2-hydroxyethanone], the IC50 was greater than 10000 nM in experiment [1] (PC-3, Table 3-1, PC3 cells) and 1000 to 10000 nM in experiment [2] (PC-3, Table 3-1, PC3 cells).

Consider `CC(=O)c1c(C2CC3CCC(C2)N3C(=O)c2nn[nH]n2)nc2c(-c3ccc(-c4ccccc4)nc3)cnn2c1N` [Compound 1.1.24, 1-(5-((1R,3s,5S)-8-(1H-tetrazole-5-carbonyl)-8-azabicyclo[3.2.1]octan-3-yl)-7-amino-3-(6-phenylpyridin-3-yl)pyrazolo[1,5-a]pyrimidin-6-yl)ethanone], for which the IC50 in experiment [1] (setting [3]) and in experiment [2] (setting [3]) was 1000 to 10000 nM in each case.

Regarding `CC(=O)c1c([C@@H]2C[C@H]3CC[C@@H](C2)N3S(C)(=O)=O)nc2c(-c3ccc(-c4ncc[nH]4)nc3)cnn2c1N` [Compound 6.10, 1-(3-(6-(1H-imidazol-2-yl)pyridin-3-yl)-7-amino-5-((1R,3s,5S)-8-(methylsulfonyl)-8-azabicyclo[3.2.1]octan-3-yl)pyrazolo[1,5-a]pyrimidin-6-yl)ethanone], the IC50 in experiment [1] (PC-3, Table 6-1, PC3 cells) fell in the range of 1 to 100 nM; in experiment [2] (PC-3, Table 6-1, PC3 cells), 1 to 100 nM.

Consider `CS(=O)(=O)c1c([C@H]2CC3CC[C@H](C2)N3C(=O)c2ncn[nH]2)nc2c(-c3ccc(C4CCC4)nc3)cnn2c1N` [Compound 3.167, ((1R,3s,5S)-3-(7-amino-3-(6-cyclobutylpyridin-3-yl)-6-(methylsulfonyl)pyrazolo[1,5-a]pyrimidin-5-yl)-8-azabicyclo[3.2.1]octan-8-yl)(1H-1,2,4-triazol-5-yl)methanone], for which the IC50 in experiment [1] (PC-3, Table 3-1, PC3 cells) was 100 to 1000 nM; in experiment [2] (PC-3, Table 3-1, PC3 cells) it was 100 to 1000 nM.

For the compound `CS(=O)(=O)c1c([C@@H]2C[C@H]3CC[C@@H](C2)N3C(=O)c2nnc[nH]2)nc2c(-c3ccc(-c4ncccc4F)nc3)cnn2c1N` [Compound 3.48, ((1R,3s,5S)-3-(7-amino-3-(3′-fluoro-2,2′-bipyridin-5-yl)-6-(methylsulfonyl)pyrazolo[1,5-a]pyrimidin-5-yl)-8-azabicyclo[3.2.1]octan-8-yl)(4H-1,2,4-triazol-3-yl)methanone], the IC50 was in the range of 1 to 100 nM in experiment [1] (PC-3, Table 3-1, PC3 cells) and 1 to 100 nM in experiment [2] (PC-3, Table 3-1, PC3 cells).

Take `CC(=O)c1c([C@@H]2C[C@H]3CC[C@@H](C2)N3C(=O)c2n[nH]c(N(C)C)n2)nc2c(-c3ccc(-c4ccccc4)nc3)cnn2c1N` [Compound 1.1.139, 1-(7-amino-5-((1R,3s,5S)-8-(5-(dimethylamino)-1H-1,2,4-triazole-3-carbonyl)-8-azabicyclo[3.2.1]octan-3-yl)-3-(6-phenylpyridin-3-yl)pyrazolo[1,5-a]pyrimidin-6-yl)ethanone]: the IC50 in experiment [1] (setting [3]) and in experiment [2] (setting [3]) was 1000 to 10000 nM each time.

Turning to `[2H]C([2H])([2H])n1ccc(-c2ccc(-c3cnn4c(N)c(C(C)=O)c([C@@H]5C[C@H]6CC[C@@H](C5)N6C(=O)c5nnc[nH]5)nc34)cn2)n1` [Compound 1.1.82, 1-(5-((1R,3s,5S)-8-(4H-1,2,4-triazole-3-carbonyl)-8-azabicyclo[3.2.1]octan-3-yl)-7-amino-3-(6-(1-methyl-(D3)-1H-pyrazol-3-yl)pyridin-3-yl)pyrazolo[1,5-a]pyrimidin-6-yl)ethanone], the IC50 in experiment [1] (setting [3]) and in experiment [2] (setting [3]) was 100 to 1000 nM each time.

For `COc1ccc(-c2ccc(-c3cnn4c(N)c(S(C)(=O)=O)c([C@H]5CC6CC[C@H](C5)N6C(=O)c5cn[nH]n5)nc34)cn2)cc1F` [Compound 3.169, ((1R,3a,5S)-3-(7-amino-3-(6-(3-fluoro-4-methoxyphenyl)pyridin-3-yl)-6-(methylsulfonyl)pyrazolo[1,5-a]pyrimidin-5-yl)-8-azabicyclo[3.2.1]octan-8-yl)(2H-1,2,3-triazol-4-yl)methanone], the IC50 in experiment [1] (PC-3, Table 3-1, PC3 cells) is 1 to 100 nM; in experiment [2] (PC-3, Table 3-1, PC3 cells), 100 to 1000 nM.

Take `CCNC(=O)N1[C@@H]2CC[C@H]1C[C@H](c1nc3c(-c4ccc(-c5ccccc5)nc4)cnn3c(N)c1S(C)(=O)=O)C2` [Compound 3.8, (1R,3s,5S)-3-(7-amino-6-(methylsulfonyl)-3-(6-phenylpyridin-3-yl)pyrazolo[1,5-a]pyrimidin-5-yl)-N-ethyl-8-azabicyclo[3.2.1]octane-8-carboxamide]: the IC50 in experiment [1] (PC-3, Table 3-1, PC3 cells) fell in the range of 100 to 1000 nM; in experiment [2] (PC-3, Table 3-1, PC3 cells), 100 to 1000 nM.

On to `Cn1nnc(-c2ccc(-c3cnn4c(N)c(S(C)(=O)=O)c([C@@H]5C[C@H]6CC[C@@H](C5)N6C(=O)CO)nc34)cn2)n1` [Compound 3.43, 1-((1R,3a,5S)-3-(7-amino-3-(6-(2-methyl-2H-tetrazol-5-yl)pyridin-3-yl)-6-(methylsulfonyl)pyrazolo[1,5-a]pyrimidin-5-yl)-8-azabicyclo[3.2.1]octan-8-yl)-2-hydroxyethanone], for which the IC50 in experiment [1] (PC-3, Table 3-1, PC3 cells) is 1000 to 10000 nM; in experiment [2] (PC-3, Table 3-1, PC3 cells), greater than 10000 nM.

`CC(=O)c1c(C2CC3COCC(C2)N3C(=O)c2nc[nH]n2)nc2c(-c3cnn(-c4ccccc4)c3)cnn2c1N` (stereo not drawn) [Compound 8.26, 1-(5-(9-(1H-1,2,4-triazole-3-carbonyl)-3-oxa-9-azabicyclo[3.3.1]nonan-7-yl)-7-amino-3-(1-phenyl-1H-pyrazol-4-yl)pyrazolo[1,5-a]pyrimidin-6-yl)ethanone]: the IC50 in experiment [1] (PC-3, PC3 cells) lay within 1 to 100 nM; in experiment [2] (PC-3, PC3 cells), 100 to 1000 nM.

Consider `Nc1c(Br)c([C@@H]2C[C@H]3CC[C@@H](C2)N3C(=O)c2nc[nH]n2)nc2c(-c3ccc(-c4ccccc4)nc3)cnn12` [Compound 2.1, ((1R,3s,5S)-3-(7-amino-6-bromo-3-(6-phenylpyridin-3-yl)pyrazolo[1,5-a]pyrimidin-5-yl)-8-azabicyclo[3.2.1]octan-8-yl)(1H-1,2,4-triazol-3-yl)methanone], for which the IC50 in experiment [1] (setting [3]) lay within 100 to 1000 nM; in experiment [2] (setting [3]) it was 1 to 100 nM.

On to `CC(=O)c1c([C@@H]2C[C@H]3CC[C@@H](C2)N3C(=O)c2cn[nH]c2N)nc2c(-c3ccc(-c4ccccc4)nc3)cnn2c1N` [Compound 1.1.141, 1-(7-amino-5-((1R,3s,5S)-8-(5-amino-1H-pyrazole-4-carbonyl)-8-azabicyclo[3.2.1]octan-3-yl)-3-(6-phenylpyridin-3-yl)pyrazolo[1,5-a]pyrimidin-6-yl)ethanone], for which the IC50 in experiment [1] (setting [3]) and in experiment [2] (setting [3]) was 1 to 100 nM in each case.

On to `Nc1cc([C@@H]2C[C@H]3CC[C@@H](C2)N3C(=O)c2nnc[nH]2)nc2c(-c3ccc(-c4ccccc4F)nc3)cnn12` [Compound 2.16, ((1R,3s,5S)-3-(7-amino-3-(6-(2-fluorophenyl)pyridin-3-yl)pyrazolo[1,5-a]pyrimidin-5-yl)-8-azabicyclo[3.2.1]octan-8-yl)(4H-1,2,4-triazol-3-yl)methanone], for which the IC50 in experiment [1] (setting [3]) and in experiment [2] (setting [3]) was 100 to 1000 nM throughout.
